Laboratory results as given in patent US8722690B2, “Mesoionic pesticides” (E I du Pont de Nemours and Company, priority 2009, dated 2014).

How the values were obtained:
Format in all cases: in vivo
[1] = system: potato leafhopper (Empoasca fabae); test: whole plant or invertebrate; conditions: 144 h, 6 days, Soleil bean plant, very good to excellent levels of control efficacy; for mortality at 50 ppm: sprayed at 50 ppm; for mortality at 10 ppm: sprayed at 10 ppm
Method: For evaluating control of potato leafhopper (Empoasca fabae) through contact and/or systemic means, the test unit consisted of a small open container with a 5-6-day-old Soleil bean plant (primary leaves emerged) inside. White sand was added to the top of the soil and one of the primary leaves was excised prior to application.
Test compounds were formulated and sprayed at 50 ppm and/or 10 ppm, and the tests were replicated three times as described for Test A. After spraying, the test units were allowed to dry for 1 h before they were post-infested with 5 potato leafhoppers (18-21-day-old adults). A black, screened cap was placed on the top of each test unit, and the test units were held for 6 days in a growth chamber at 24° C. and 70% relative humidity. Each test unit was then visually assessed for insect mortality.

[2] = system: green peach aphid (Myzus persicae); test: whole plant or invertebrate; conditions: 144 h, 6 days, radish plant; for mortality at 50 ppm: sprayed at 50 ppm
Excerpt: For evaluating control of green peach aphid (Myzus persicae) through contact and/or systemic means, the test unit consisted of a small open container with a 12-15-day-old radish plant inside. This was pre-infested by placing on a leaf of the test plant 30-40 aphids on a piece of leaf excised from a culture plant (cut-leaf method). The aphids moved onto the test plant as the leaf piece desiccated. After pre-infestation, the soil of the test unit was covered with a layer of sand.
Test compounds were formulated and sprayed at 50 ppm and/or 10 ppm as described for Test A. The applications were replicated three times. After spraying of the formulated test compound, each test unit was allowed to dry for 1 h and then a black, screened cap was placed on top. The test units were held for 6 days in a growth chamber at 19-21° C. and 50-70% relative humidity. Each test unit was then visually assessed for insect mortality.

[3] = system: corn planthopper (Peregrinus maidis); test: whole plant or invertebrate; conditions: 144 h, 6 days, maize plant, very good to excellent levels of control efficacy; for mortality at 10 ppm: sprayed at 10 ppm; for mortality at 50 ppm: sprayed at 50 ppm
Method: For evaluating control of corn planthopper (Peregrinus maidis) through contact and/or systemic means, the test unit consisted of a small open container with a 3-4-day-old maize plant (spike) inside. White sand was added to the top of the soil prior to application. Test compounds were formulated and sprayed at 50 ppm and/or 10 ppm, and replicated three times as described for Test A. After spraying, the test units were allowed to dry for 1 h before they were post-infested with ˜15-20 nymphs (18 to 21 day old) by sprinkling them onto the sand with a salt shaker. A black, screened cap was placed on the top of each test unit, and the test units were held for 6 days in a growth chamber at 22-24° C. and 50-70% relative humidity. Each test unit was then visually assessed for insect mortality.

[4] = system: cotton melon aphid (Aphis gossypii); test: Test D: control of cotton melon aphid on cotton plant, contact and/or systemic; conditions: for mortality at 50 ppm: sprayed at 50 ppm
Excerpt: For evaluating control of cotton melon aphid (Aphis gossypii) through contact and/or systemic means, the test unit consisted of a small open container with a 6-7-day-old cotton plant inside. This was pre-infested with 30-40 insects on a piece of leaf according to the cut-leaf method described for Test C, and the soil of the test unit was covered with a layer of sand.
Test compounds were formulated and sprayed at 50 ppm and/or 10 ppm as described for Test C. The applications were replicated three times. After spraying, the test units were maintained in a growth chamber and then visually rated as described for Test C.

O=c1c(-c2ccccc2)c([O-])[n+](Cc2cnc(Cl)s2)c2c3ccsc3ccn12 [Compound 356]
≥ 80%: mortality at 50 ppm [1]

CCn1ccn2c(=O)c(-c3ccccc3)c([O-])[n+](Cc3cnc(Cl)s3)c12 [Compound 333]
≥ 80%: mortality at 10 ppm [1] | mortality at 50 ppm [1] | mortality at 10 ppm ([2]; sprayed at 10 ppm) | mortality at 50 ppm [2] | mortality at 10 ppm [3] | mortality at 50 ppm [3] | mortality at 50 ppm [4]

O=c1c(-c2ccccc2F)c([O-])[n+](Cc2cnc(Cl)s2)c2c3ccsc3ccn12 [Compound 357]
≥ 80%: mortality at 10 ppm [1] | mortality at 50 ppm [1] | mortality at 50 ppm [2]

CCn1ccn2c(=O)c(-c3cccc(C(F)(F)F)c3)c([O-])[n+](Cc3cnc(Cl)s3)c12 [Compound 340]
≥ 80%: mortality at 50 ppm [1] | mortality at 50 ppm [2] | mortality at 10 ppm [3] | mortality at 50 ppm [3] | mortality at 10 ppm ([4]; sprayed at 10 ppm) | mortality at 50 ppm [4]
